Structures can show the parent of a compound that is named as a salt.
Columns and labels:
resistant form of EPSPS = test: EPSPS assay of plant extracts +/- 0.1 mM glyphosate, resistant form; type: biochemical, rice; settings: 0.1 mM N-(phosphonomethyl)glycine, 0.1 mM 14C-PEP, 0.75 mM shikimate-3-Pi, estimated
Procedure: (§1) Assays are carried out generally according to the radiochemical method of Padgette et al 1987 (Archives of Biochemistry and Biophysics, 258(2) 564-573) with K+ ions as the major species of cationic counterion. Assays in a total volume of 50 μl, in 50 mM Hepes(KOH) pH 7.0 at 25° C., contain purified enzyme or plant extract (see below) diluted appropriately in Hepes pH 7.0 containing 10% glycerol, and 5 mM DTT, ^14C PEP either as variable substrate (for kinetic determinations) or fixed at 100 or 250 μM and shikimate 3 Phosphate (K+ salt) at 2 or 0.75 mM as indicated. Optionally, for assays of crude plant extracts, assays also contain 5 mM KF and/or 0.1 mM ammonium molybdate. Assays are started with the addition of ^14C phosphoenolpyruvate (cyclohexylammonium+salt) and stopped after 2-10 minutes (2 minutes is preferable) with the addition of 50 μl of a solution of 1 part 1M acetic acid and 9 parts ethanol. […] Apparent Km and Vmax values are determined by least squares fit to a hyperbola with simple weighting using the Grafit 3.09b from Erithacus Software Ltd. Km values are generally ascertained using 8-9 concentrations of variable substrate ranging from Km/2-10 Km and triplicate points. […]

[1] = system: sensitive w/t form of EPSPS (endogenous); test: EPSPS assay of plant extracts +/- 0.1 mM glyphosate, sensitive w/t form; type: biochemical, corn; settings: 0.1 mM N-(phosphonomethyl)glycine, 0.1 mM 14C-PEP, 0.75 mM shikimate-3-Pi
Procedure: as §1

[2] = molecular target: T1, mutant form of rice EPSPS (Oryza sativa, UniProt A0A0N9WU17, P177S/T173I); test: EPSPS enzyme assay and kinetic constants, purified mutant rice EPSPS expressed in E. coli; type: biochemical
T1 sequence (A0A0N9WU17 72-515 T173I/P177S): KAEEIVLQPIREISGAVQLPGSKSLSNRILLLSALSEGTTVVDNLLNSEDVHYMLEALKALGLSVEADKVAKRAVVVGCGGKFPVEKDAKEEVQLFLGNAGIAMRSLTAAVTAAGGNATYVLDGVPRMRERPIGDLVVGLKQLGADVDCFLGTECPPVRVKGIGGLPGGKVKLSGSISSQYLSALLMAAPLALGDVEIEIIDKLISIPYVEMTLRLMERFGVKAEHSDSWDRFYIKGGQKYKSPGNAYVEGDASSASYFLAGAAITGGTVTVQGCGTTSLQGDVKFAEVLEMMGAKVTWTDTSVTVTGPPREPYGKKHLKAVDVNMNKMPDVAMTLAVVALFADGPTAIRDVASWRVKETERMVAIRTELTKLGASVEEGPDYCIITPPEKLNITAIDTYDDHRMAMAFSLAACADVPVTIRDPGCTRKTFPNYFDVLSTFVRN
Procedure: as §1

SMILES	inhibition of resistant (tolerant) EPSPS (resistant form of EPSPS) [%]	inhibition of resistant (tolerant) EPSPS (resistant form of EPSPS; listed as N-(phosphonomethyl)glycine) [%]	inhibition of sensitive w/t EPSPS [1] [%]	IC50 [2] [µM]	Ki [2] [µM]
O=C(O)CNCP(=O)(O)O [glyphosate, N-phosphonomethylglycine]	~8	< 8.5	> 98	–	–
O=C(O)CNCP(=O)(O)O [potassium salt of glyphosate]	–	–	–	~600	~200

Source: patent US6867293B2, “Polynucleotide constructs having at least one transcriptional enhancer and encoding a modified rice EPSPS enzyme” (Syngenta Limited, priority 2000, dated 2005)
